Source: US20160143946A1, “COMBINATION THERAPIES FOR TREATING CANCER” (priority 2014, published 2016)
pIC50: −log10 of the molar value. Where two headings read alike, the source gives them in different places.

Columns and labels:
Assay type in all cases: cell-based, human
[1] = test system: SW780 bladder cancer cell line; assay: Cell viability by MTT incorporation, SW780 bladder cancer cells; conditions: read-out: SW780 IC50
Protocol: (§1) SW780 and HT1376 bladder cancer cell lines stained with anti-CD44 and anti-CD49f were examined by flow cytometry. Cells were treated with cisplatin, AR-42, sodium butyrate, valproic acid, and trichostatin A at concentrations indicated for 24 hours and cell viability was determined by MTT incorporation. The table denotes IC50s for SW780 and HT1376 cells to listed agents.
(§2) Bladder Cancer Cell Lines—SW780 and HT1376 cell lines were grown in RPMI with 10% fetal bovine serum at 37° C. with 5% CO2 and treated with cisplatin, AR-42, sodium butyrate, trichostatin A, and valproic acid at concentrations indicated.
(§3) SW780 and HT1376 cell lines were treated with cisplatin, AR-42, sodium butyrate, valproic acid, and trichostatin A at various concentrations and cell viability was determined by MTT incorporation (FIG. 1).

[2] = test system: HT1376 bladder cancer cell line; assay: Cell viability by MTT incorporation, HT1376 bladder cancer cells; conditions: read-out: HT1376 IC50
Protocol: as §1, §2, §3

[3] = test system: SW780 cells; assay: Cisplatin / HDAC inhibitor combination, MTT survival with isobologram combination index, SW780; conditions: administered at their IC90s; SW780 and HT1376 cells (Table 3)
Protocol: Isobolograms were used to calculate combination indices to indicate synergy at IC50 and IC90, whereby CI<1 denotes synergy.
as §2
SW780 and HT1376 cells treated with cisplatin, AR-42, a combination cisplatin and AR-42 at a 5:1 ratio, a combination cisplatin and AR-42 in a 20:1 molar ratio, as assessed by MTT incorporation (FIG. 2).

[4] = Homo sapiens, SW780 cells, 24 hours treatment, MTT incorporation
[5] = Homo sapiens, HT-1376, HT1376 cells, 24 hours treatment, MTT incorporation
[6] = SW780 cells, 24 hours treatment, MTT incorporation
[7] = HT1376 cells, 24 hours treatment, MTT incorporation

Row | pIC50 [1, 4] | pIC50 [2, 5] | Structure (SMILES) | synergy with cisplatin [3] | pIC50 [1, 6] | pIC50 [2, 7] | further results
1 | 5.85 | 5.85 | CC(C)[C@H](C(=O)Nc1ccc(C(=O)NO)cc1)c1ccccc1 [AR-42] | synergy | – | – | –
2 | – | – | CCCC(=O)[O-].[Na+] [Sodium Butyrate] | synergy | – | – | pIC50 ([1]; Homo sapiens, SW780, 24 h): 2.42; pIC50 ([2]; Homo sapiens, HT-1376, 24 h): 2.07
3 | 2.22 | 2.13 | CCCC(CCC)C(=O)O [Valproic Acid] | – | – | – | –
4 | – | – | CC(/C=C/C(=O)NO)=C\[C@@H](C)C(=O)c1ccc(N(C)C)cc1 [Trichostatin A] | – | 6.60 | 6.92 | –
5 | – | – | N.N.[Cl][Pt][Cl] [Cisplatin] | – | 5.07 | 4.52 | –
